{"source": "patent US8076320B2", "about": "“Crystalline forms of a pharmaceutical compound” (Cephalon, Inc., priority 2004, dated 2011)", "type_in_all_cases": "physicochemical", "key": {"[1]": {"test": "Suspension of excess solid Compound I in solvent on a rotarmix, solid form determined by powder X-ray diffraction", "procedure": "In the following examples are used excess of solid Compound I, i.e. compared to the solvent the amounts of solid Compound I is such that not all the solid material comes into solution. The amounts used varied between 25-50 mg solid Compound I and 2-5 ml solvent. In the present context by “solid Compound I” is meant amorphous Compound I or any of the crystalline forms of Compound I as indicated below. • (i) Excess of amorphous Compound I was added to methanol and the resulting suspension was stored on a rotarmix for 4 days at room temperature. […] After filtration the supernatant was left for evaporation of the solvent. […] Conclusion: […]"}, "[2]": {"test": "Suspension of excess solid Compound I in solvent on a rotarmix, solid form determined by powder X-ray diffraction", "conditions": "4 days, room temperature; for solid form after storage as suspension in acetonitrile (ACN): excess solid in ACN; for solid form after storage as suspension in methanol: excess solid in methanol"}, "[3]": {"test": "Light exposure of the solid compound in a Heraeus Suntest CPS+", "conditions": "solid compound exposed to light for 14 h at 650W", "procedure": "Experiments were carried out in a Heraeus Suntest CPS+ for the crystalline forms alpha, beta and gamma where the solid compound was exposed to light for 14 h at 650W."}, "[4]": {"conditions": "listed as crystalline gamma form of Compound I"}, "[5]": {"conditions": "listed as crystalline beta form of Compound I"}, "[6]": {"conditions": "listed as crystalline alpha form of Compound I"}}}
{"smiles": "CCSCc1ccc2c(c1)c1c3c(c4c5cc(CSCC)ccc5n5c4c1n2[C@H]1C[C@](O)(C(=O)OC)[C@]5(C)O1)CNC3=O", "values": [{"measurement": "solid form after storage as suspension in methanol", "setting": "[1]; excess solid in methanol, rotarmix, 4 days, room temperature, powder X-ray diffraction", "result": "the major part of the solid was the gamma form"}, {"measurement": "solid form obtained on evaporation of the filtered supernatant", "setting": "[1]; methanol suspension after 4 days, filtration, supernatant left for evaporation of the solvent", "result": "the alpha form"}]}
{"smiles": "CCSCc1ccc2c(c1)c1c3c(c4c5cc(CSCC)ccc5n5c4c1n2[C@H]1C[C@](O)(C(=O)OC)[C@]5(C)O1)CNC3=O", "note": "[gamma]", "values": [{"measurement": "solid form after storage as suspension in acetonitrile (ACN)", "setting": "[2]; [4]", "result": "still the gamma form"}, {"measurement": "solid form after storage as suspension in methanol", "setting": "[2]; [4]", "result": "still the gamma form"}]}
{"smiles": "CCSCc1ccc2c(c1)c1c3c(c4c5cc(CSCC)ccc5n5c4c1n2[C@H]1C[C@](O)(C(=O)OC)[C@]5(C)O1)CNC3=O", "note": "[beta]", "values": [{"measurement": "solid form after storage as suspension in acetonitrile (ACN)", "setting": "[2]; [5]", "result": "the gamma form"}, {"measurement": "solid form after storage as suspension in methanol", "setting": "[2]; [5]", "result": "the alpha form"}]}
{"smiles": "CCSCc1ccc2c(c1)c1c3c(c4c5cc(CSCC)ccc5n5c4c1n2[C@H]1C[C@](O)(C(=O)OC)[C@]5(C)O1)CNC3=O", "note": "[amorphous substance]", "values": [{"measurement": "degradation after light treatment", "setting": "[3]", "result": "~60", "unit": "%"}, {"measurement": "solid form after storage as suspension in acetonitrile (ACN)", "setting": "[2]; listed as amorphous Compound I", "result": "the gamma form"}, {"measurement": "solid form after storage as suspension in methanol", "setting": "[2]; listed as amorphous Compound I", "result": "the alpha form"}]}
{"smiles": "CCSCc1ccc2c(c1)c1c3c(c4c5cc(CSCC)ccc5n5c4c1n2[C@H]1C[C@](O)(C(=O)OC)[C@]5(C)O1)CNC3=O", "note": "[alpha]", "values": [{"measurement": "solid form after storage as suspension in acetonitrile (ACN)", "setting": "[2]; [6]", "result": "the gamma form"}, {"measurement": "solid form after storage as suspension in methanol", "setting": "[2]; [6]", "result": "still the alpha form"}]}
